# Assay results: patent EP0498830B1, “GLUTAMIC AND ASPARTIC ACID DERIVATIVES WITH ANTIGASTRIN ACTIVITY AND A METHOD FOR THEIR PREPARATION” (ROTTA RESEARCH LABORATORIUM S.P.A., priority 1989, dated 1991)
# Like-named read-outs stand apart in the source and are kept apart here.
# Key:
# [1] = target: T1, central gastrin receptors (Mus musculus, UniProt P56481); experiment: Inhibition of binding of tritiated pentagastrin to mouse cerebral cortex membranes; set-up: Mouse cortex tissue was homogenised cold in 20 volumes of tris buffer (pH 7.7); from tissue; host or cells: mouse cerebral cortex membranes; species or system mice; details: displacement of pentagastrin tritiate; 40 minutes at 37°C
# T1 sequence (P56481 1-453): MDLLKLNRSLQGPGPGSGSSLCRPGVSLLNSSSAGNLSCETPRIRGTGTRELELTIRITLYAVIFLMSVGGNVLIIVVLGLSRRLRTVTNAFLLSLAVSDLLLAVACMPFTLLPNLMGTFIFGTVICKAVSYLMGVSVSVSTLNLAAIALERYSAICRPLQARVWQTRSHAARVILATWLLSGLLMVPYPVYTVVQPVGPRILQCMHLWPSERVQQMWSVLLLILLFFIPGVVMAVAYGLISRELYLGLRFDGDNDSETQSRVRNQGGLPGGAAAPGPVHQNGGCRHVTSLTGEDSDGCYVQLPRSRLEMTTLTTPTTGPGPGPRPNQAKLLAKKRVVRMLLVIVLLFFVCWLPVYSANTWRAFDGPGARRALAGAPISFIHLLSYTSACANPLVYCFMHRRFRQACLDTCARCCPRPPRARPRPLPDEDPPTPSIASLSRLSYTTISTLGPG
# Description: Cerebral cortex membranes were therefore used and pentagastrin tritiate was again used as the ligand.
# Mouse cortex tissue was homogenised cold in 20 volumes of tris buffer (pH 7.7). After washing and centrifuging, the final pellet was resuspended in 20 volumes of binding buffer containing, inter alia, TRIS, BSA and bacitracin. 0.4 ml of the membrane thus obtained were then incubated with a radioactive tracer and with the compounds under test for 40 minutes at 37°C.
# After the supernatant liquid had been removed by centrifuging, the radioactivity associated with the pellet was determined, again with a liquid scintillator. The specific binding is the difference between the binding in the absence and in the presence of 10⁻⁶M pentagastrin.
# Again, this gives the IC50s of the compounds tested with the meaning as given above.
# [2] = target: T2, gastrin receptor sites on the parietal cell membranes of the fundic mucosa of a guinea-pig stomach (Cavia porcellus, UniProt H0VZC5); experiment: Inhibition of binding of tritiated pentagastrin to isolated guinea-pig gastric glands; set-up: from tissue; host or cells: isolated gastric glands from guinea-pig fundic mucosa (collagenase digestion)
# T2 sequence (H0VZC5 1-426): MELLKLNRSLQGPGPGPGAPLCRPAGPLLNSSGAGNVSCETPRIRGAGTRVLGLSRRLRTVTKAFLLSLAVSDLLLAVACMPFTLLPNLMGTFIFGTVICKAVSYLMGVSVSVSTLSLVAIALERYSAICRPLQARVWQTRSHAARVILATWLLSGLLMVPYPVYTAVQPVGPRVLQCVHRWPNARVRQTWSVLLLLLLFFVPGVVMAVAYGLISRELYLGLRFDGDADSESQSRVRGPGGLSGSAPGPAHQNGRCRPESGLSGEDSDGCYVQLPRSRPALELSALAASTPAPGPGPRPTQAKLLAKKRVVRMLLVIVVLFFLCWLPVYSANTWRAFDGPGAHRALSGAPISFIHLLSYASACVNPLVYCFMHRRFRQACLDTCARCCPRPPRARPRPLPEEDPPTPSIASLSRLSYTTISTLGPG
# Description: The capacity of some of the compounds which are the subject of the invention to inhibit the binding of pentagastrin-[beta-alanyl-3-3H(N)] to the gastrin receptor sites on the parietal cell membranes of the fundic mucosa of a guinea-pig stomach was evaluated by comparison with the displacement of pentagastrin induced by proglumide, which is a reference antigastrin compound, by lorglumide, which is a powerful CCK antagonist mentioned above, and by the compound D5 which is the optical antipode (the L-series enantiomer) of the compound D1.
# Male guinea pigs weighing about 400-500g were used. After the guinea pig had been killed, its stomach was removed and placed in oxygenated SPB buffer at 37°C (SPB = saline phosphate buffer: 149.6 mM NaCl, 3 mM K₂HPO₄, 0.64 mM NaH₂PO₄, pH 7.3).
# After washing in the buffer, the stomach was placed on a petri dish and the antral part discarded.
# The mucosa of the remaining part was removed from the underlying muscular part and was then chopped and transferred to a flask containing a collagenase digestion solution, 0.1% BSA and 0.2% glucose. The solution was incubated at 37°C for 10 minutes under agitation and a stream of 0₂.
# During the incubation period, the tissue was passed several times through a series of pipettes with decreasing diameters in order to facilitate its digestion. At the end of the period, the tissue was removed and centrifuged at 1000 rpm. The supernatant liquid resulting from the centrifuging was discarded and the pellet washed several times with a washing buffer containing EPTA to remove the collagenase.
# The glands were then isolated from the undigested tissue by conventional techniques, suspended in Hepes buffer for binding and incubated together with a radioactive tracer and the compounds under test for 30 minutes at 25°C.
# After the supernatant liquid had been removed by centrifuging, the radioactivity associated with the pellet was determined with a liquid scintillator. The specific binding was determined as the difference between the binding in the absence and in the presence of 10⁻⁶ M pentagastrin.
# The results obtained are shown in Table 1 which gives the IC50, that is, the concentration (in moles/litre) of the antagonist which can displace 50% of the pentagastrin tritiate from the receptor.
# [3] = test system: gastric acid secretion induced by pentagastrin; experiment: Antisecretive activity in anaesthetised rats, stimulant pentagastrin; format: in vivo; details: Rattus norvegicus, iv; pentagastrin 30 mcg/kg/h; I.V. bolus; anaesthetised rats; read-out: Antagonistic activity (ED50 mg/kg IV) towards gastric acid secretion induced by pentagastrin
# Description: The antisecretive activity was determined in rats with the use of male animals weighing about 200g, anaesthetised with urethane. Gastric secretion was stimulated with pentagastrin. K.S. Lai's method (Gut 5, (1964), 327-341) was used, with slight modifications.
# After tracheotomy, oesophageal and duodenal cannulae were inserted. A tepid solution (37°C) of 0.25 mM NaOH was perfused through the stomach by means of a peristaltic pump at a constant flow rate of 1 ml/minute. After stabilisation for 20 minutes, the dose of the stimulant, indicated in Table 3, dissolved in a physiological solution, was perfused for 120 minutes at a rate of 0.95 ml/hour. After 60 minutes of perfusion (basic stimulation), the products under test were administered intravenously (I.V.) in boli whilst the perfusion of the stimulant continued for a further 60 minutes. The acid secretion was recorded continuously as a function of time.
# The activity of the product was evaluated as the reduction in the secreted acidity after administration of the product as a percentage of the basic acidity measured during the first 60 minutes of collection during which only pentagastrin was present.
# The antagonistic compounds tested were administered in different doses so that an ID50 (that is the dose (in mg/Kg I.V.) which can inhibit the effect of the pentagastrin by 50% could be calculated.
# The results thus obtained are given in the following table in which the activities of the compounds are expressed as ID50s under the stimulus of pentagastrin at 30 mcg/Kg/h.
# [4] = test system: guinea-pig gall bladders stimulated in vitro by CCK-8; experiment: Anti-CCK activity on guinea-pig gall bladder contracted in vitro by CCK-8; details: CCK-8 10 ng/ml; at least three tests per compound
# Description: In order to check the hypothesis that the molecular conformation of the subject compounds is suitable to give them a specific antagonistic activity towards gastrin and not towards CCK, the anticontracturant activity of some of the compounds of the invention was tested on guinea-pig gall bladders stimulated in vitro by CCK-8.
# A longitudinal strip of guinea-pig gall bladder was placed in a bath for isolated organs in the presence of Krebs at a temperature of 32°C, continuously oxygenated by an oxygen-CO₂ mixture (95-5 V/V).
# The isometric contractions were detected by means of a force transducer and recorded.
# The gall bladder was contracted with the use of a 10ng/ml concentration of CCK-8; the antagonistic activity of the compounds towards the contracturant effect of the CCK was determined with the use of different concentrations and the IC50 value, that is, the concentration in mcg/ml of the compound which is able to antagonise the contracturant effect of the CCK by 50%, thus determined.
# The results obtained are set out in the table below which gives the compounds tested and the IC50s which were calculated by the regression method on a set of at least three tests for each compound investigated.
# [5] = displacement of 50% of pentagastrin tritiate, 30 minutes at 25°C, read-out: IC50
SMILES,IC50 [1],"IC50 [2, 5]",ED50 [3],IC50 ACTIVITY [4],"times less active than the corresponding compound D1 ([2]; L-series vs D-series enantiomer, gastric glands)",IC50 [2]
CCC(C)(CC)CCNC(=O)C(CC(=O)O)NC(=O)c1cccc(Cl)c1 (racemic) [A24],290 nM,230 nM,42 mg/kg,,,
"CCCN(CCC)C(=O)C(CCC(=O)O)NC(=O)c1ccccc1 (stereo not shown) [Proglumide, reference compound]",220000 nM,,500 mg/kg,,,
Cc1cccc(C(=O)NC(CCC(=O)O)C(=O)NC2CCCCC2)c1 (racemic) [A19],,41000 nM,98 mg/kg,,,
CCCCCCNC(=O)C(CCC(=O)O)NC(=O)c1cccc(Cl)c1 (racemic) [A3],7500 nM,4800 nM,54 mg/kg,,,
CCCCCNC(=O)C(CCC(=O)O)NC(=O)c1cccc(Cl)c1 (racemic) [A1],6700 nM,2000 nM,56 mg/kg,> 100 µg/mL,,
O=C(O)CCC(NC(=O)c1cccc(Cl)c1)C(=O)NC1CCCCC1 (racemic) [A7],,17000 nM,93 mg/kg,> 100 µg/mL,,
CCC(C)(CC)CCNC(=O)C(CCC(=O)O)NC(=O)c1cc(C)cc(C)c1 (racemic) [A22],2400 nM,2900 nM,41 mg/kg,,,
"CC(C)(C)CCNC(=O)[C@H](CCC(=O)O)NC(=O)c1cccc(Cl)c1 [D5, reference compound]",660 nM,520 nM,89 mg/kg,,about 10 times,
O=C(O)CCC(NC(=O)c1cccc(Cl)c1)C(=O)NC1CCCCCC1 (racemic) [A12],6400 nM,3800 nM,58 mg/kg,,,
"O=C(O)CC[C@H](NC(=O)c1cccc(Cl)c1)C(=O)NC1CCCCCC1 [D6, reference compound]",,67000 nM,,,,
CCCCCNC(=O)C(CCC(=O)O)NC(=O)c1cccc(C)c1 (racemic) [A17],17000 nM,4500 nM,65 mg/kg,,,
CCC(C)(CC)CCNC(=O)[C@@H](CCC(=O)O)NC(=O)c1cccc(Cl)c1 [D3],,58 nM,30 mg/kg,,,
CCC(CC)CCNC(=O)C(CCC(=O)O)NC(=O)c1cccc(Cl)c1 (racemic) [A11],,650 nM,53 mg/kg,,,
CCC(C)(CC)CCNC(=O)C(CC(=O)O)NC(=O)c1cccc(C)c1 (racemic) [A26],,840 nM,52 mg/kg,,,
O=C(O)CC[C@@H](NC(=O)c1cccc(Cl)c1)C(=O)NC1CCCCCC1 [D4],,2300 nM,64 mg/kg,,,
CCC(C)(C)CCNC(=O)C(CCC(=O)O)NC(=O)c1cccc(C)c1 (racemic) [A20],830 nM,680 nM,44 mg/kg,> 100 µg/mL,,
CCC(C)(CC)CCNC(=O)C(CCC(=O)O)NC(=O)c1cc(Cl)ccc1[N+](=O)[O-] (racemic) [A23],230 nM,66 nM,40 mg/kg,,,
CC(C)(C)CCNC(=O)C(CCC(=O)O)NC(=O)c1cc(Cl)cc(Cl)c1 (racemic) [A21],80 nM,,34 mg/kg,,,69 nM
CC(C)CCNC(=O)C(CCC(=O)O)NC(=O)c1cccc(Cl)c1 (racemic) [A2],,3100 nM,48 mg/kg,,,
CCC(C)CCNC(=O)C(CCC(=O)O)NC(=O)c1cccc(Cl)c1 (stereo not shown) [A6],,4500 nM,55 mg/kg,,,
CCCCCCNC(=O)C(CCC(=O)O)NC(=O)c1cccc(C)c1 (racemic) [A18],,5800 nM,58 mg/kg,,,
CCC(CC)(CC)CCNC(=O)C(CCC(=O)O)NC(=O)c1cccc(Cl)c1 (racemic) [A14],93 nM,78 nM,39 mg/kg,,,
CCCCCCCNC(=O)C(CCC(=O)O)NC(=O)c1cccc(Cl)c1 (racemic) [A8],39000 nM,12000 nM,> 100 mg/kg,,,
CC(C)CCCNC(=O)C(CCC(=O)O)NC(=O)c1cccc(Cl)c1 (racemic) [A4],,3300 nM,61 mg/kg,,,
CCC(C)(CCNC(=O)C(CCC(=O)O)NC(=O)c1cccc(Cl)c1)C(C)C (stereo not shown) [A16],,290 nM,37 mg/kg,,,
O=C(O)CC(NC(=O)c1cccc(Cl)c1)C(=O)NC1CCCCCC1 (racemic) [A25],,7300 nM,74 mg/kg,,,
CC(C)(C)CCCNC(=O)C(CCC(=O)O)NC(=O)c1cccc(Cl)c1 (racemic) [A9],220 nM,200 nM,34 mg/kg,,,
CC(C)(C)CCCNC(=O)[C@@H](CCC(=O)O)NC(=O)c1cccc(Cl)c1 [D2],59 nM,34 nM,34 mg/kg,,,
CCC(C)(C)CCNC(=O)C(CCC(=O)O)NC(=O)c1cccc(Cl)c1 (racemic) [A10],180 nM,230 nM,37 mg/kg,,,
